In patent publication US20080293699A1, “Inhibitors of thapsigargin-induced cell death” (priority 2007, published 2008):
“Also recorded” adds a separate entry of the source.

What was measured:
CSM14.1 cells = experiment: Annexin V staining viability assay (flow cytometry), thapsigargin-treated undifferentiated CSM14.1 cells; format: cell-based, rat; settings: hit compounds 25 μM, TG 15 μM
Method: Undifferentiated CSM14.1 cells were cultured as for FIG. 16. The next day, DMSO (a, b) (1% final volume), 100 μM Salubrinal (c, d) or 25 μM of hit compounds (1% final DMSO) was added. After two hrs, 15 μM TG was added to all wells except a and c. The plates were returned to culture for 24 hrs, then cells were recovered by trypsinization, transferred to 1.5 ml microcentrifuge tubes, and resuspended in 0.5 mL of Annexin V-binding solution. The percentage of annexin V-negative cells was determined by flow-cytometry (y-axis). Treatments and compounds were the same as in FIG. 16.
One method we have employed, for example, for confirming protection against TG-induced killing uses fluorochrome-conjugated annexin V staining with flow-cytometry analysis to evaluate the percentage cell viability by a method that is independent of the ATP content assay.
FIGS. 16 and 17 show the results of a secondary assay for evaluating the cytoprotective activity of the compounds. In FIG. 16, undifferentiated CSM14.1 cells were cultured at 10^4 cells per well of 24-well plates (Greiner Bio One). The next day, DMSO (a, b) (1% final volume), 100 μM Salubrinal (c, d) or 25 μM of hit compounds (1% final DMSO) was added. After two hrs, 15 μM TG was added to all wells except a and c. A conventional ATP assay was performed to measure survival rate. In FIG. 17 undifferentiated CSM14.1 cells were cultured at 10^4 cells per well of 24-well plates (Greiner Bio One). The next day, DMSO (a, b) (1% final volume), 100 μM Salubrinal (c, d) or 25 μM of hit compounds (1% final DMSO) was added. After two hrs, 15 μM TG was added to all wells except a and c. […] The percentage of annexin V-negative cells was determined by flow-cytometry (y-axis), using a FACSort instrument (Beckton-Dickinson). […]
7) The percentage of annexin V-negative cells was determined by flow-cytometry (y-axis), using a FACSort analysis facility in Burnham (Beckton & Dickinson)

Jurkat human T-leukemia = experiment: Thapsigargin-induced death of Jurkat cells, ATP content assay; format: cell-based; settings: 25 μM
Method: To explore whether compounds broadly protect cells of various lineages versus only neuronal cells, we tested all 26 hits for ability to rescue CSM14.1 (neuronal), and Jurkat (lymphoid), cell lines from cell death induced by TG. […] CSM 14.1 (FIG. 15, left) and Jurkat cells (FIG. 15, right) were cultured overnight at 3,000 cells per well or at 30,000 cells per well, respectively, in 96-well plates. Wells received DMSO alone or 25 μM compounds in DMSO, followed by treatment with or without TG (15 μM). After culturing for 24 hrs, ATP content was determined, expressing data as a percentage control relative to cells treated only with DMSO (mean ±SD; n=3). The data reveal that one of the compounds protects CSM14.1 but not Jurkat cells from TG-induced cell death (as measured by the ATPlite assay). […]
In addition to CSM14.1 cells, when tested at 25 μM, Compound 5962123 protected by >50% against thapsigargin-induced death of several tumor cell lines (HeLa human cervical cancer, SW1 melanoma cell, PPC1, human prostate cancer), mouse neural stem cell C17.2 (both differentiated [neuronal phenotype] and non-differentiated [stem cell phenotype]) as determined by ATP content assay, and primary rat cortical neurons as determined by microscopy assay measuring the percentage of NeuN-immunopositive cells with either normal or apoptotic nuclear morphology (Hoechst dye staining). […]

[1] = system: PC12 rat pheochromocytoma cells; experiment: Thapsigargin-induced death of PC12 cells (undifferentiated and differentiated), ATP content assay; format: cell-based; design: key to Cytoprotective activity, PC12 (Result): +indicates >50% rescue of cell viability relative to untreated cells not exposed to thapsigargin at compound concentration of ≦25 μM; E indicates compound enhanced thapsigargin-induced death
Method: In addition to CSM14.1 cells, when tested at 25 μM, Compound 5962123 protected by >50% against thapsigargin-induced death of several tumor cell lines (HeLa human cervical cancer, SW1 melanoma cell, PPC1, human prostate cancer), mouse neural stem cell C17.2 (both differentiated [neuronal phenotype] and non-differentiated [stem cell phenotype]) as determined by ATP content assay, and primary rat cortical neurons as determined by microscopy assay measuring the percentage of NeuN-immunopositive cells with either normal or apoptotic nuclear morphology (Hoechst dye staining).
For PC12, cells were stimulated with 20 ng/ml NGF for five days; for C17.2, cells were stimulated with serum reduction, and 1% N2 incubation for three days; for CSM14.1, cells were cultured at 39° C. for 5-7 days.

[2] = system: primary mouse neuronal cells; experiment: Thapsigargin-induced death of primary mouse neuronal cells, immunostaining and microscopy; format: cell-based; settings: 25 μM, two hours before thapsigargin for 24 hours
Method: (§1) Primary cortical neuron cells were prepared from the […] of mice. After 14 days of maturation, the cells were preincubated with DMSO (0.2%) or 25 μM of compound 6239507 for two hours. The cells were then treated with thapsigargin (TG) for 24 hours. Cells were fixed with an aldehyde solution and subjected to immunostaining with NeuN and MAP2 antibody for staining the neuronal body and axon network. Hoechst dye was used to stain nuclei. To show the loss of the axon network by thapsigargin, a wide field was captured by fluorescent microscopy. Cells showing a condensed nucleus and shrunken neuritis were considered as dead to evaluate cell death.
as §1, with “Fluorescent microscopy was used to” for “To”, “thapsigargin.” for “thapsigargin, a wide field was captured by fluorescent microscopy.”

Row | Compound | Protection against TG-induced cell death measured by annexin V staining (CSM14.1 cells) | Protection of Jurkat cells from thapsigargin-induced cell death (Jurkat human T-leukemia) | Protection of PC12 cells from thapsigargin-induced cell death ([1]; 25 μM, undifferentiated or differentiated as stated, ATP content assay) | Effect on thapsigargin-treated undifferentiated PC12 cells ([1]; undifferentiated PC12) | Cytoprotective activity, PC12 (Result) ([1]; undifferentiated, thapsigargin 15 μM, ATP content, compound ≦25 μM) | Final DMSO concentration needed in culture media to avoid a visible cloudy precipitate | Inhibition of ER stress-induced cell death in primary mouse neuronal cells [2]
1 | CCN(CC)c1ccc(C2Nc3ccccc3NC3=C2C(=O)CC(c2ccccc2)C3)cc1 (stereo not shown) [Compound 5962123, 6-(4-diethylaminophenyl)-9-phenyl-5,6,8,9,10,11-hexahydrobenzo[c][1,5]benzodiazepin-7-one] | confirmed | does not protect; also recorded: inactive | does not protect | paradoxical cell death-promoting activity | E | at least 0.2 % (v/v) | –
2 | COc1ccc(C2CC(=O)C3=C(C2)Nc2ccccc2NC3c2cccc(Oc3ccccc3)c2)cc1OC (stereo not shown) [Compound 6239507] | – | – | – | – | – | – | can inhibit
